From ChEMBL document CHEMBL1833813, “Synthesis of a series of γ-amino alcohols comprising an N-methyl isoindoline moiety and their evaluation as NMDA receptor antagonists” (Bioorg Med Chem Lett, 2011)

Legend:
[1] = Displacement of [3H]MK-801 from high affinity site of NMDA-NR2B receptor in porcine hippocampus synaptosomal fractions after 15 mins; assay type: tissue-based, Sus scrofa
[2] = Displacement of [3H]-ifenprodil from ifenprodil binding site of NMDA receptor in porcine hippocampus synaptosomal fractions after 2 hrs; assay type: tissue-based, Sus scrofa
hERG (KCNH2) = hERG (KCNH2) (Homo sapiens, UniProt Q12809); test: Residual current of human ERG expressed in CHO-K1 cells at 100 uM by patch clamp electrophysiological assay relative to control; settings: CHO-K1 cells expressing human ERG
[3] = Displacement of [3H]MK-801 from low affinity site of NMDA receptor in porcine hippocampus synaptosomal fractions after 15 mins; assay type: tissue-based, Sus scrofa
[4] = Displacement of [3H]MK-801 from NMDA-NR2B receptor in porcine hippocampus synaptosomal fractions under nonequilibrium conditions after 15 mins; assay type: tissue-based, Sus scrofa
[5] = Displacement of [3H]-ifenprodil from ifenprodil binding site of NMDA receptor low affinity site in porcine hippocampus synaptosomal fractions after 2 hrs; assay type: tissue-based, Sus scrofa
Sus scrofa [6] = organism: Sus scrofa; test: Displacement of [3H]-ifenprodil from ifenprodil binding site of NMDA receptor in porcine hippocampus synaptosomal fractions at 100 uM after 2 hrs relative to control; assay type: tissue-based
Sus scrofa [7] = organism: Sus scrofa; test: Displacement of [3H]MK-801 from NMDA-NR2B receptor in porcine hippocampus synaptosomal fractions at 100 uM after 15 mins relative to control; assay type: tissue-based

Chain of hERG (KCNH2) (Q12809 whole entry): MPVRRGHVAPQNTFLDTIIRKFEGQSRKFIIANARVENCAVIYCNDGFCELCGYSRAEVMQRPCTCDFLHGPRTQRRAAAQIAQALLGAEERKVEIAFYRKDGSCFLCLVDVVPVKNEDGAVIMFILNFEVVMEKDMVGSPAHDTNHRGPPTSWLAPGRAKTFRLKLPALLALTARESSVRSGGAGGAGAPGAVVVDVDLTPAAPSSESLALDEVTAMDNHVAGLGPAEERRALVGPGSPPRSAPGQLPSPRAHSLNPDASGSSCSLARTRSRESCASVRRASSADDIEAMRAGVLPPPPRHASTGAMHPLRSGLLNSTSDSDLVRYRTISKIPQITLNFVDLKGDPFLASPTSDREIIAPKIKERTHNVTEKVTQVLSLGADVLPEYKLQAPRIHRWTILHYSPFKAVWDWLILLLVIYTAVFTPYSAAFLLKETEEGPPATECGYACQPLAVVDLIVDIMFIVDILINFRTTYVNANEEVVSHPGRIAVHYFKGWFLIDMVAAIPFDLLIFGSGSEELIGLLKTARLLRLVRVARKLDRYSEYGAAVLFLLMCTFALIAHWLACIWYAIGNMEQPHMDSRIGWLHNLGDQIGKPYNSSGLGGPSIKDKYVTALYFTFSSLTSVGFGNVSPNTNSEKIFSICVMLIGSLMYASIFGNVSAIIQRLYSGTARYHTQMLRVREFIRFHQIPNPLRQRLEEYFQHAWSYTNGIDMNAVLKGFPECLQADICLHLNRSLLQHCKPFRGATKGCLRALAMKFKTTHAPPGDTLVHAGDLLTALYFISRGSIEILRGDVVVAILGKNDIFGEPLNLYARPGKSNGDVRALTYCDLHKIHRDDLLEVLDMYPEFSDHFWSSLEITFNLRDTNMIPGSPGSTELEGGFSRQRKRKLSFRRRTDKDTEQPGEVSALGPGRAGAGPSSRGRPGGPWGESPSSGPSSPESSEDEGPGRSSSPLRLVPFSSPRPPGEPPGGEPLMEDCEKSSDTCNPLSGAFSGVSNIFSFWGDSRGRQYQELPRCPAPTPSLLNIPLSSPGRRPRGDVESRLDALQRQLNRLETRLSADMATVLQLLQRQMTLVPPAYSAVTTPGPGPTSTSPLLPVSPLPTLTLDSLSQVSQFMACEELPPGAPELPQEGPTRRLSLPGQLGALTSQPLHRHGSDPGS

Row | Compound | IC50 [2] [µM] | IC50 [4] [µM] | other results
1 | CN1Cc2ccccc2[C@@H]1C[C@H](O)c1ccc(Cl)cc1 | 0.27 | – | IC50 [1]: 0.5 µM; residual current at 100 µM (hERG (KCNH2)): 1.6%; IC50 [3]: 67 µM
2 | CN1Cc2ccccc2[C@H]1C[C@H](O)c1ccc([N+](=O)[O-])cc1 | 42 | 43 | –
3 | Cc1ccc([C@H](O)C[C@@H]2c3ccccc3CN2C)cc1 | 35 | 31 | –
4 | COc1cc2c(cc1OC)[C@H](C[C@H](O)c1ccc(Cl)cc1)N(C)CC2 | – | – | IC50 [1]: 0.103 µM; IC50 [5]: 22.5 µM; IC50 [3]: 23.5 µM
5 | Cc1ccc([C@H](O)C[C@H]2c3ccccc3CN2C)cc1 | – | 28 | Activity (Sus scrofa [6]): 65%
6 | CN1Cc2ccccc2[C@@H]1C[C@@H](O)c1ccc(Cl)cc1 | – | 26 | Activity (Sus scrofa [6]): 77%
7 | CN1Cc2ccccc2[C@@H]1C[C@H](O)c1ccc([N+](=O)[O-])cc1 | 7.5 | 43 | –
8 | CN1Cc2ccccc2[C@H]1C[C@H](O)c1ccc(Cl)cc1 | 21 | 47 | –
9 | Cc1ccc([C@@H](O)C[C@@H]2c3ccccc3CN2C)cc1 | 9.3 | 23 | –
10 | CN1Cc2ccccc2[C@H]1C[C@@H](O)c1ccc([N+](=O)[O-])cc1 | 52 | – | Activity (Sus scrofa [7]): 82%
11 | CN1Cc2ccccc2[C@H]1C[C@@H](O)c1ccc(Cl)cc1 | 11 | – | Activity (Sus scrofa [7]): 78%
12 | CN1Cc2ccccc2[C@@H]1C[C@@H](O)c1ccc([N+](=O)[O-])cc1 | – | 39 | Activity (Sus scrofa [6]): 54%
13 | Cc1ccc([C@@H](O)C[C@H]2c3ccccc3CN2C)cc1 | 0.43 | – | IC50 [1]: 0.21 µM; residual current at 100 µM (hERG (KCNH2)): 2.6%; IC50 [3]: 20 µM
